Our source for the AC50 values is ChEMBL document CHEMBL5291721, “A preclinical secondary pharmacology resource illuminates target-adverse drug reaction associations of marketed drugs” (Nat Commun, 2023).

For one assay, the target named is T1, Androgen receptor (Homo sapiens, UniProt P10275).
T1 sequence (P10275 whole entry): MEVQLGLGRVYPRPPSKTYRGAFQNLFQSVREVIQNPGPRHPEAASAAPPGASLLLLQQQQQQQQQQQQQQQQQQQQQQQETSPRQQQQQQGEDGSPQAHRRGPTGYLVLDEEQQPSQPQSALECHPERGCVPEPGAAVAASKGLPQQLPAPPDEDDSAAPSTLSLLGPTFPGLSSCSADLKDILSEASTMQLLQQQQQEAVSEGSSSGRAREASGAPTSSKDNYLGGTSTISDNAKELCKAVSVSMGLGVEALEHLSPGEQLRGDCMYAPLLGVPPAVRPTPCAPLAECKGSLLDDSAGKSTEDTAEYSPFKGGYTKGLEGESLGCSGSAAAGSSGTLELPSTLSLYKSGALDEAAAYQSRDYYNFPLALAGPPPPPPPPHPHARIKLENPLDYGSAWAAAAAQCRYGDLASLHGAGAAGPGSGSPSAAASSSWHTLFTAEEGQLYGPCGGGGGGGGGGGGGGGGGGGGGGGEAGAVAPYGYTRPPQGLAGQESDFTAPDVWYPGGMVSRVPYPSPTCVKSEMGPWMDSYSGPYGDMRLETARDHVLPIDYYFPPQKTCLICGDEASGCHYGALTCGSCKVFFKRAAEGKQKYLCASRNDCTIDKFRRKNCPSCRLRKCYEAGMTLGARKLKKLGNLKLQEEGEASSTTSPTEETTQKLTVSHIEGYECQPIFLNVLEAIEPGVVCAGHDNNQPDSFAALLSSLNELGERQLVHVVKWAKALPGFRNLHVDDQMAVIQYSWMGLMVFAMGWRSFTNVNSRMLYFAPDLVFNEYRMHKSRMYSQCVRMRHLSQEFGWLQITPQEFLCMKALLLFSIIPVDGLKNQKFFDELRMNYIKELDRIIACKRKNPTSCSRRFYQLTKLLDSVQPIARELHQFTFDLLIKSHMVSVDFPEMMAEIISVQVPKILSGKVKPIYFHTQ

Assay [1] has as its target T2, Corticotropin-releasing factor receptor 1 (Homo sapiens, UniProt P34998).
T2 sequence (P34998 whole entry): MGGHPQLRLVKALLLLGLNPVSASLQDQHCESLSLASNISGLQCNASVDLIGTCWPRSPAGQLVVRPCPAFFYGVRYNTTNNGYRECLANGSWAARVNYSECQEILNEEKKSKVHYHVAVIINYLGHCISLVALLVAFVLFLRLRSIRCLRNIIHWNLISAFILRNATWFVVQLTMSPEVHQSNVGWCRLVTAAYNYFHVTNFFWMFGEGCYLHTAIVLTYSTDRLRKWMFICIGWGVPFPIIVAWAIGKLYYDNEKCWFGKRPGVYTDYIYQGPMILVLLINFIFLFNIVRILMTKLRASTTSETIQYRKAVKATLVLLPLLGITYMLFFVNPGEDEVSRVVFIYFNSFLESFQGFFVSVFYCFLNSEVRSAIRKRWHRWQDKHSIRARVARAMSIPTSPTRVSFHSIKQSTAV

In assay [2] the target is Neurotensin receptor type 1 (Homo sapiens, UniProt P30989).
Chain of Neurotensin receptor type 1 (P30989 whole entry): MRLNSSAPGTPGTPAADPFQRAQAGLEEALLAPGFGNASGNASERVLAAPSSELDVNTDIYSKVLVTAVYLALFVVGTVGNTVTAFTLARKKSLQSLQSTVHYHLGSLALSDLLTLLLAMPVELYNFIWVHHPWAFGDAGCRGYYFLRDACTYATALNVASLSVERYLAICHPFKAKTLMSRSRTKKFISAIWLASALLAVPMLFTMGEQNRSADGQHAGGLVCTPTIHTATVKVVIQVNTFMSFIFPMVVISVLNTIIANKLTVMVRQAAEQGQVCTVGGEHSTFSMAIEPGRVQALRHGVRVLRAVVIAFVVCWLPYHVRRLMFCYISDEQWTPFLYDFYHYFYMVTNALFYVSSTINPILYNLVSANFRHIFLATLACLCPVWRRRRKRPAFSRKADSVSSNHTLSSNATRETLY
Assay [3] concerns the target T3, Alpha-2A adrenergic receptor (Homo sapiens, UniProt P08913).
T3 sequence (P08913 whole entry): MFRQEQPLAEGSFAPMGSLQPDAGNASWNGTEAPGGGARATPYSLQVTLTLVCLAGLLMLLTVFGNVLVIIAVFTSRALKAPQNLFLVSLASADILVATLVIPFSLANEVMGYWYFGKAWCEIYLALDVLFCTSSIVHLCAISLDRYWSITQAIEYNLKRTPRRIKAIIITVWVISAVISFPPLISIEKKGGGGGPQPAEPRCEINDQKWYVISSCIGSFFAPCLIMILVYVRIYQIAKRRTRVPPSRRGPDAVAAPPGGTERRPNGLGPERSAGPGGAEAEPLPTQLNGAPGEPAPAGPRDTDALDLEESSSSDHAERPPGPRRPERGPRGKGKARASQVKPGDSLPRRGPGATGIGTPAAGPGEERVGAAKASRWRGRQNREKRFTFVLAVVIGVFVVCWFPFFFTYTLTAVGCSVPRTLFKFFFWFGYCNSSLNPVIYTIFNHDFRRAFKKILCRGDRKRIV

In assay [4] the target is T4, 5-hydroxytryptamine receptor 1A (Homo sapiens, UniProt P08908).
T4 sequence (P08908 whole entry): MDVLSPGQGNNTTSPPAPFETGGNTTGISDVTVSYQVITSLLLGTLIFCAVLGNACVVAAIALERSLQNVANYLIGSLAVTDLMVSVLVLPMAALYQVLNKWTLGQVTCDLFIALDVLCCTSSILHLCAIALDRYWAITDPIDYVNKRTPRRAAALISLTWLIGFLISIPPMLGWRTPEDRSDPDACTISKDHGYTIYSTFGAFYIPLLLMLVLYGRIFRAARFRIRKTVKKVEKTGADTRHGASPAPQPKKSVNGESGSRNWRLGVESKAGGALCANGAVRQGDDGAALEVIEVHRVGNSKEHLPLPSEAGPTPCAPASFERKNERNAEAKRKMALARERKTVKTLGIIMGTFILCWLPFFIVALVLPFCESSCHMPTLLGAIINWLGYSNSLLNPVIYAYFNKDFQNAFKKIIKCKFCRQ

For another assay, the target named is D(1A) dopamine receptor (Homo sapiens, UniProt P21728).
Chain of D(1A) dopamine receptor (P21728 whole entry): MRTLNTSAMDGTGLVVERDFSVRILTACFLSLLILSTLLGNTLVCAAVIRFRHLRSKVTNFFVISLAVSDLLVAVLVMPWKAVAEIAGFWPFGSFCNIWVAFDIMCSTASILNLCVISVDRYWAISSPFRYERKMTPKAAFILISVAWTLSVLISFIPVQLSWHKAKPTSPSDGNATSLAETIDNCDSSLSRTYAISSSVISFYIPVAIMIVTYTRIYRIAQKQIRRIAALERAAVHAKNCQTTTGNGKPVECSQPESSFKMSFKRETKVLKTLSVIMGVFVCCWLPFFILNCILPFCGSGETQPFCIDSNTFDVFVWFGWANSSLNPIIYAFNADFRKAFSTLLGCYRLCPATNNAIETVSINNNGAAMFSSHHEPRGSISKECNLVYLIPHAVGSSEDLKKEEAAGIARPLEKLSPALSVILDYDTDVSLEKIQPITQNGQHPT
The next assay concerns the target Histamine H1 receptor (Homo sapiens, UniProt P35367).
Assay [5] deals with 5-hydroxytryptamine receptor 2A (Homo sapiens, UniProt P28223). Type of assay: functional, cell-based.
Chain of 5-hydroxytryptamine receptor 2A (P28223 whole entry): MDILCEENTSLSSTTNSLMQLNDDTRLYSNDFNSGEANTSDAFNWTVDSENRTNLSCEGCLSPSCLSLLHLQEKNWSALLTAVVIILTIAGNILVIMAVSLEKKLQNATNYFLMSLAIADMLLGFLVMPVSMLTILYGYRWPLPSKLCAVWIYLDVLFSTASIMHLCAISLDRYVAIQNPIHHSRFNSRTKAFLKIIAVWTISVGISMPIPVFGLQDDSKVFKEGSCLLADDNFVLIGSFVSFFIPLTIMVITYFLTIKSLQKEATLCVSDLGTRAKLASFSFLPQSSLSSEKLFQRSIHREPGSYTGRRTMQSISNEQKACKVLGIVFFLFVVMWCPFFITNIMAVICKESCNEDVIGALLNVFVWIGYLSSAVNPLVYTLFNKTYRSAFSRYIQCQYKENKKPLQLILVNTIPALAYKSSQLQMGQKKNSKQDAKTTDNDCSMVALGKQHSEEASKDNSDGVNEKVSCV
Further: assay procedure not described here.

Chain of Histamine H1 receptor (P35367 whole entry): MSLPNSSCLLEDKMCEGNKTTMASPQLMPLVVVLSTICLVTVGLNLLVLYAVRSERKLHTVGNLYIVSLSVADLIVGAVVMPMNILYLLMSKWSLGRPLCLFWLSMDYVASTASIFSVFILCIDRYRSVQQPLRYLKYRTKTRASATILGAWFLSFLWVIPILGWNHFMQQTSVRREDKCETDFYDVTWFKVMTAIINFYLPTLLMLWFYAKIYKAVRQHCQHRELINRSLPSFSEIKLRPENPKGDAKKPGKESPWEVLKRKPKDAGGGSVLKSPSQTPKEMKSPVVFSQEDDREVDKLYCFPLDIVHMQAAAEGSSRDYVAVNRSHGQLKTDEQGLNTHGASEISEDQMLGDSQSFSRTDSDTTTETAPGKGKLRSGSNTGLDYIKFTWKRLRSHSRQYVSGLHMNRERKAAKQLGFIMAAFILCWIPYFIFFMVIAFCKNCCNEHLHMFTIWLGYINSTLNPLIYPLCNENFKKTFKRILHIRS

Consider `OC[C@H]1O[C@@H](c2ccc(Cl)c(Cc3ccc(O[C@H]4CCOC4)cc3)c2)[C@H](O)[C@@H](O)[C@@H]1O` [EMPAGLIFLOZIN], for which the AC50 on Androgen receptor is over 30 µM.

Turning to `Cc1onc(-c2ccccc2)c1-c1ccc(S(N)(=O)=O)cc1` [VALDECOXIB], the half-maximal activity concentration (AC50) in assay [1] was over 30 µM; in assay [2] it was over 30 µM; in assay [3], over 10 µM; in assay [4], over 10 µM; on D(1A) dopamine receptor, over 10 µM.

At Androgen receptor, `N#Cc1ccc2c(c1)N(CCCN1CCC(O)CC1)c1ccccc1S2` [PERICIAZINE] registered a half-maximal activity concentration (AC50) of over 30 µM.

Regarding `C[C@]12C=CC(=O)N[C@@H]1CC[C@@H]1[C@@H]2CC[C@]2(C)[C@@H](C(=O)Nc3cc(C(F)(F)F)ccc3C(F)(F)F)CC[C@@H]12` [DUTASTERIDE], the AC50 (on Histamine H1 receptor; in assay [5]) was over 10 µM in each case.

On to `Nc1ccc(S(=O)(=O)Nc2nccs2)cc1` [SULFATHIAZOLE], for which the concentration at half-maximal activity (AC50) in assay [1] is over 30 µM; in assay [2], over 30 µM; in assay [3], over 10 µM; in assay [4], over 10 µM; at D(1A) dopamine receptor it was over 10 µM.

As to `CCOC(=O)c1c(C)cc2c(CO)n[nH]c(=O)c2c1C` [OXAGRELATE], at Androgen receptor, the AC50 was over 30 µM.

With `COc1ccc(CC2c3cc(OC)c(OC)cc3CC[N+]2(C)CCC(=O)OCCCCCOC(=O)CC[N+]2(C)CCc3cc(OC)c(OC)cc3C2Cc2ccc(OC)c(OC)c2)cc1OC` (stereo not drawn), the AC50 (on Histamine H1 receptor; in assay [5]; in assay [3]) was over 30 µM throughout.

In the case of `FC(F)(F)c1ccc(CNc2ccc(Cc3c[nH]c4ncc(Cl)cc34)cn2)cn1` [PEXIDARTINIB], the concentration at half-maximal activity (AC50) on Androgen receptor was over 30 µM.

In turn, `O=C1CCc2cc(OCCCCc3nnnn3C3CCCCC3)ccc2N1` [CILOSTAZOL] yielded an AC50 in assay [4] of over 10 µM.

As for `CCN(CC)CCNC(=O)c1c(C)[nH]c(/C=C2\C(=O)Nc3ccc(F)cc32)c1C` [SUNITINIB], the concentration at half-maximal activity (AC50) stood at 9.47 µM in assay [3] and 7.13 µM in assay [4].

Regarding `O=C1CN(/N=C/c2ccc(-c3ccc([N+](=O)[O-])cc3)o2)C(O)=N1` [DANTROLENE], the concentration at half-maximal activity (AC50) (at Histamine H1 receptor; in assay [5]) was over 10 µM throughout.

As for `O=C(O)c1cc(/N=N/c2ccc(O)c(C(=O)O)c2)ccc1O` [OLSALAZINE], the AC50 at Androgen receptor was over 30 µM.

`CC[C@H](C)C[C@H](C)CCCCCCCCC(=O)N[C@H]1C[C@@H](O)[C@@H](NCCN)NC(=O)[C@@H]2[C@@H](O)CCN2C(=O)[C@H]([C@H](O)CCN)NC(=O)[C@H]([C@H](O)[C@@H](O)c2ccc(O)cc2)NC(=O)[C@@H]2C[C@@H](O)CN2C(=O)[C@H]([C@@H](C)O)NC1=O` [CASPOFUNGIN] returned an AC50 at Androgen receptor of over 30 µM.

With `CC(C(=O)O)c1ccc2c(c1)[nH]c1ccc(Cl)cc12` (stereo not drawn) [CARPROFEN], the AC50 (on Histamine H1 receptor; in assay [5]) was over 10 µM each time.

Compound `CN1CCC(=C2c3ccccc3Sc3ccccc32)CC1` [PIMETHIXENE] showed a half-maximal activity concentration (AC50) on Androgen receptor of over 30 µM.

Compound `CC(C)C[C@H](NC(=O)CNC(=O)c1cc(Cl)ccc1Cl)B(O)O` [IXAZOMIB] came in with an AC50 on Androgen receptor of over 30 µM.

`CC(C)OC(=O)CCC/C=C\C[C@@H]1[C@@H](/C=C/C(F)(F)COc2ccccc2)[C@H](O)C[C@@H]1O` [TAFLUPROST]: the AC50 at Androgen receptor is over 30 µM.

Consider `C[C@H]1c2cccc(O)c2C(=O)C2=C(O)[C@]3(O)C(=O)C(C(N)=O)=C(O)[C@@H](N(C)C)[C@@H]3[C@@H](O)[C@@H]21` [DOXYCYCLINE], for which the AC50 in assay [1] was over 30 µM; in assay [2], over 30 µM; in assay [3] it was over 10 µM; in assay [4] it was over 10 µM; at D(1A) dopamine receptor it was over 10 µM.

On to `OC[C@H]1O[C@@H](c2ccc(F)c(Cc3cc4ccccc4s3)c2)[C@H](O)[C@@H](O)[C@@H]1O` [IPRAGLIFLOZIN], for which the AC50 on Androgen receptor is over 30 µM.

Consider `CC(C)N(CCC(C(N)=O)(c1ccccc1)c1ccccn1)C(C)C` (stereo not drawn) [DISOPYRAMIDE], for which the AC50 is over 30 µM in assay [1], over 10 µM at Histamine H1 receptor, over 30 µM in assay [2] and over 10 µM in assay [4].

Turning to `CC(C)Cc1ccc(C(C)C(=O)O)cc1` (stereo not drawn) [IBUPROFEN], the AC50 is over 30 µM in assay [1]; over 30 µM in assay [2]; over 10 µM in assay [3]; over 10 µM in assay [4]; over 10 µM at D(1A) dopamine receptor.

On to `COc1ccccc1OCCNCC(O)COc1cccc2[nH]c3ccccc3c12` (stereo not drawn) [CARVEDILOL], for which the AC50 is over 30 µM in assay [1]; over 30 µM in assay [2]; 0.189 µM in assay [3]; 0.02 µM in assay [4]; 2.28 µM on D(1A) dopamine receptor.

In the case of `CC(CN1CC(=O)NC(=O)C1)N1CC(=O)NC(=O)C1` (stereo not drawn) [RAZOXANE], the half-maximal activity concentration (AC50) at Androgen receptor is over 30 µM.

At Androgen receptor, `CCc1nc(C(N)=O)c(Nc2ccc(N3CCC(N4CCN(C)CC4)CC3)c(OC)c2)nc1NC1CCOCC1` [GILTERITINIB] registered an AC50 of over 30 µM.

`CC(=O)O[C@]1(C(C)=O)CC[C@H]2[C@@H]3C=C(C)C4=CC(=O)CC[C@@H]4[C@H]3CC[C@@]21C` [NOMEGESTROL ACETATE]: the figures for the AC50 (at Androgen receptor; on Histamine H1 receptor; in assay [5]) were 0.02 µM, over 30 µM and over 30 µM, respectively.

Compound `C/C=C/C/C=C/CCC(=O)[C@H]1O[C@H]1C(N)=O` [CERULENIN] had an AC50 on Androgen receptor of over 30 µM.

In the case of `CCCC(CCC)C(=O)O` [VALPROIC ACID], the AC50 in assay [1] is over 30 µM; in assay [2], over 30 µM; in assay [3], over 10 µM; in assay [4] it was over 10 µM; at D(1A) dopamine receptor, over 10 µM.

As to `CC(C)(O)CNc1nc(Nc2ccnc(C(F)(F)F)c2)nc(-c2cccc(C(F)(F)F)n2)n1` [ENASIDENIB], the AC50 on Androgen receptor is over 30 µM.

Regarding `CC[C@H](c1ccc(O)cc1)[C@@H](CC)c1ccc(O)cc1` [HEXESTROL], the half-maximal activity concentration (AC50) at Androgen receptor stood at 6.95 µM.

`O=C(O)COc1ccc(C(=O)c2cccs2)c(Cl)c1Cl` registered a half-maximal activity concentration (AC50) at Androgen receptor of over 30 µM.

`C[C@@H]1C[C@H]2[C@@H]3CCC4=CC(=O)C=C[C@]4(C)[C@@]3(Cl)[C@@H](O)C[C@]2(C)[C@@]1(OC(=O)c1ccco1)C(=O)CCl` [MOMETASONE FUROATE] returned a concentration at half-maximal activity (AC50) at Androgen receptor of 0.0337 µM.

Regarding `COc1cc2nc(N3CCN(C(=O)C4CCCO4)CC3)nc(N)c2cc1OC` (stereo not drawn) [TERAZOSIN], the half-maximal activity concentration (AC50) in assay [1] was over 30 µM; in assay [2], over 30 µM; in assay [3], 7.27 µM; in assay [4] it was over 10 µM; at D(1A) dopamine receptor, over 10 µM.

As for `C=C[C@H]1C[N@@]2CC[C@H]1C[C@@H]2[C@@H](O)c1ccnc2ccc(OC)cc12` [QUINIDINE], the AC50 (at Histamine H1 receptor; in assay [4]) was over 10 µM each time.
